Laboratory results from PMC12494099, “Discovery and Characterization of Novel IKZF1/3 Glue Degraders against Multiple Hematological Cancer Cell Lines” (Oncology Research, 2025).

Tests used:
Type in all cases: cell-based
[1] = tested on: NCI-H929; experiment: Cell apoptosis assay (Annexin V flow cytometry); conditions: NCI-H929, 1 and 10 µM
Description: (§1) Cells (NCI-H929 and MV-4-11) were seeded at a density of 1 × 10^6 cells per well into 6-well dishes. […] Apoptosis was assessed using an Annexin V-FITC kit (#ab14085; Abcam, MA, USA) on a FACS Calibur Flow Cytometer (Becton Dickinson, Franklin Lakes, NJ, USA). For cell cycle analysis, cells were fixed in 75% ethanol (−20°C/overnight), washed with PBS (pH = 7.2–7.4, 1×), treated with RNase A (0.2 mg/mL, 37°C/30 min), stained with PI (10 μg/mL), and analyzed on the same instrument. Finally, the samples were analyzed using a FACS Calibur Flow Cytometer.

[2] = tested on: MV-4-11; experiment: Cell apoptosis assay (Annexin V flow cytometry)
Description: as §1

[3] = target: T1, CK1α-HiBiT (Homo sapiens, UniProt P48729); experiment: Quantitative degradation assay using the HiBiT system (HEK293T); conditions: increased dosing to 10 μM, 24 h
T1 construct: expressed in transfected cells; host or cells: HEK293T
T1 sequence (Q96SW2 whole entry partner): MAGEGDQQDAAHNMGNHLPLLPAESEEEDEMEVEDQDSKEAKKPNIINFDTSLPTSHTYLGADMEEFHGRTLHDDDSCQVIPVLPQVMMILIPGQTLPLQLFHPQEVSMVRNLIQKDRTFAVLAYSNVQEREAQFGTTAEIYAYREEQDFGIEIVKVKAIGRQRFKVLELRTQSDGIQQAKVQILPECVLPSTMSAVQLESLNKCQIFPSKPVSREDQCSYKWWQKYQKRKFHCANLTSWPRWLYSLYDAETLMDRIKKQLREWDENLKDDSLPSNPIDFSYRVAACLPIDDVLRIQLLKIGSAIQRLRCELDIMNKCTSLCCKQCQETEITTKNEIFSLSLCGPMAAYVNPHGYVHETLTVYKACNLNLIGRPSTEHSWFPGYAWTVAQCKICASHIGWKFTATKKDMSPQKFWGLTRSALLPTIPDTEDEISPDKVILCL
T1 sequence (Q16531 whole entry partner): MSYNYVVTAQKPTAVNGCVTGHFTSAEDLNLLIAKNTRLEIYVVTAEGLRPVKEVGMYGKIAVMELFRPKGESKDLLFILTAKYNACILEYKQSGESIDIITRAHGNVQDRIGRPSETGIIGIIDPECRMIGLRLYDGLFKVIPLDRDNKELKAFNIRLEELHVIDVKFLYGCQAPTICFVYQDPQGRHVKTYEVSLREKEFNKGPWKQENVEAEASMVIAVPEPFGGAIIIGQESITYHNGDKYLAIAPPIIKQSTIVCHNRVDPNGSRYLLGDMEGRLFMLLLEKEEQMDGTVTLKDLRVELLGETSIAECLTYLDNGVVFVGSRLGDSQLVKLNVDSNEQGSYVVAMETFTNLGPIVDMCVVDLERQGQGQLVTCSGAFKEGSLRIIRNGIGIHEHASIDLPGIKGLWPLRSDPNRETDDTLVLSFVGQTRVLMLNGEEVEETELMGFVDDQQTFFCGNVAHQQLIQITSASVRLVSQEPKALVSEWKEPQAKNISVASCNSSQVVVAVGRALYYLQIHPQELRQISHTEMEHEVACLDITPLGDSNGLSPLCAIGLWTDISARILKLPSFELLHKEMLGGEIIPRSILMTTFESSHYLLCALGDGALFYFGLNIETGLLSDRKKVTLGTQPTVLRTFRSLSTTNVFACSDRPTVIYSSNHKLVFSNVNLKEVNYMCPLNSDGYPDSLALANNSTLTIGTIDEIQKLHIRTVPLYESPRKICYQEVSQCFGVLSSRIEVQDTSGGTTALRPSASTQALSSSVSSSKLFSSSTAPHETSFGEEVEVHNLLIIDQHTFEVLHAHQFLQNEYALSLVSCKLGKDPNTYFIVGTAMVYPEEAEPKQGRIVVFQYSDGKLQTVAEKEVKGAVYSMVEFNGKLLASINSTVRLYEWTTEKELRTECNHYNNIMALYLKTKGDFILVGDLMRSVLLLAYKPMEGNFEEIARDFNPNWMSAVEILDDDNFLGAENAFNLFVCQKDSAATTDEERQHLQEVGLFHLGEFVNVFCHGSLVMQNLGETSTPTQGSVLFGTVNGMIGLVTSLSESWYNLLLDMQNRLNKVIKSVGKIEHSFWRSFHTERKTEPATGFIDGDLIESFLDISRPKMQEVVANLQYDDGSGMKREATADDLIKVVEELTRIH
T1 sequence (P48729 whole entry): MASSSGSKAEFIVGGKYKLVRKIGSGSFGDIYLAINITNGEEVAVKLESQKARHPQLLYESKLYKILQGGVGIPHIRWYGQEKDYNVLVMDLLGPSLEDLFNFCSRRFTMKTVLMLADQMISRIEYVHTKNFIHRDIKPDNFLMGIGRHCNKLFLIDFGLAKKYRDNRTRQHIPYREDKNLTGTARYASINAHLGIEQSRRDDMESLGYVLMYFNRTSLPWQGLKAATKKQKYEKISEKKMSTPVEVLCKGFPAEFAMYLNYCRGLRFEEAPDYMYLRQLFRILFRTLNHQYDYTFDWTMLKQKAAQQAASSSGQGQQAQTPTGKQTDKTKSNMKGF
Description: (§2) An in vitro quantitative degradation assay utilizing the HiBiT system was carried out as previously described. To evaluate the degradation of IKZF1, IKZF2, and IKZF3 proteins, HEK293T cell lines stably expressing IKZF1-, IKZF2-, IKZF3-, GSPT1- or CK1α-HiBiT were cultured in 96-well plates at 12,000 cells per well. The cells were treated with different concentrations of the test compounds (MGD-A7 and MGD-C9) with concentrations of 0, 0.01, 0.033, 0.1, 0.33, 1, 3.3, 10 and 33 μM for the specified time intervals. After the treatment, cell lysis was carried out using the Nano-Glo HiBiT Lytic Detection System (#N3040, Promega). All lysis operations were strictly carried out according to the manufacturer’s specific protocol. Then, the SpectraMax iD3 instrument (Molecular Devices, San Jose, CA, USA) was used to detect the luminescent signals released by the HiBiT-tagged neosubstrates.

[4] = target: T2, GSPT1-HiBiT (Homo sapiens, UniProt P15170); experiment: as above; conditions: increased dosing to 10 μM, 24 h
T2 construct: expressed in transfected cells; host or cells: HEK293T
T2 sequence (Q96SW2 whole entry partner): as the sequence (Q96SW2 whole entry partner) above
T2 sequence (Q16531 whole entry partner): as the sequence (Q16531 whole entry partner) above
T2 sequence (P15170 whole entry): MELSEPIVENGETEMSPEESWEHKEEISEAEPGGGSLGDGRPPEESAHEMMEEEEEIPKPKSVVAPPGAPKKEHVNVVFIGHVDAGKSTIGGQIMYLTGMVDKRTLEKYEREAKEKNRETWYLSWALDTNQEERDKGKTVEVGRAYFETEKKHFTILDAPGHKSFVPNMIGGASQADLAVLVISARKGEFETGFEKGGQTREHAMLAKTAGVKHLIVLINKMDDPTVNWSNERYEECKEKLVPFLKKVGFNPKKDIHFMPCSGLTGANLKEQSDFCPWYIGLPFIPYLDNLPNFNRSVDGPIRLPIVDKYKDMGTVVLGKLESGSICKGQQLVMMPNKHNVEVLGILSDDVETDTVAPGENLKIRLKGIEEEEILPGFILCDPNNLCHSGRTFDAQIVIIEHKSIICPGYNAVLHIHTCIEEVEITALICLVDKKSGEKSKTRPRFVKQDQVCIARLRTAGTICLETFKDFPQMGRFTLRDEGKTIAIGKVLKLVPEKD
Description: as §2

[5] = target: T3, IKZF2-HiBiT (Homo sapiens, UniProt Q9UKS7); experiment: as above; conditions: dose response 24 h and time course 1 µM
T3 construct: expressed in transfected cells; host or cells: HEK293T
T3 sequence (Q96SW2 whole entry partner): as the sequence (Q96SW2 whole entry partner) above
T3 sequence (Q16531 whole entry partner): as the sequence (Q16531 whole entry partner) above
T3 sequence (Q9UKS7 whole entry): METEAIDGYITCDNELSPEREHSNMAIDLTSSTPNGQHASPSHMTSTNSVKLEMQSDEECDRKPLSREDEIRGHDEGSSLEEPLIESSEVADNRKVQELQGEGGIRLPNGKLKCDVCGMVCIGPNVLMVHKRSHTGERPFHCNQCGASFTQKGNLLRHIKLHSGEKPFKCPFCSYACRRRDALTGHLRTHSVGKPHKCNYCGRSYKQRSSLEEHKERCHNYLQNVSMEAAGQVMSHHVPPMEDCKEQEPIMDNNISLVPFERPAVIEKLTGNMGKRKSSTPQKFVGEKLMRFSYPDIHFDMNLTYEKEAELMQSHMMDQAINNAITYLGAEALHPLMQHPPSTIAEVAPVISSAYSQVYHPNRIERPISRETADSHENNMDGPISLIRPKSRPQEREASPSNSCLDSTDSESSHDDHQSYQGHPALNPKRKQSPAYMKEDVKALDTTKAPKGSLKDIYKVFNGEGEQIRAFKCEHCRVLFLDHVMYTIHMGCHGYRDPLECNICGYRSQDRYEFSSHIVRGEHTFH
Description: as §2

[6] = target: T4, GSPT1 (Homo sapiens, UniProt P15170); experiment: MS-based quantitative proteomics in NCI-H929 cells; conditions: NCI-H929, 10 μM, 4 h; not notably downregulated
T4 construct: endogenous in cells; host or cells: NCI-H929
Description: (§3) NCI-H929 cells were treated with either 10 μM DMSO or 10 μM MGD-C9 for 4 h. Post-treatment, the cells were washed with PBS (pH = 7.2–7.4, 1×) and then lysed in 8M Urea (UA) (comprising 8M urea, 100 mM Tris-HCl, pH = 8.0). Subsequently, the cell lysate was subjected to centrifugation on a high-speed freezing microcentrifuge (#CF1524R; SCILOGEX, Meriden, CT, USA) at […], and the supernatant was collected. Subsequently, the collected supernatant was treated with 10 mM tris (2-carboxyethyl) phosphine hydrochloride (TCEP) to reduce it for 30 min. Following this, cysteine alkylation was performed using 50 mM 2-chloroacetamide (CAA) for an additional 30 min. The denatured proteins were then digested with trypsin (1 μg/μL) at an enzyme-to-protein ratio of 1:50 and incubated at 37°C overnight. The reaction was stopped by adding 0.1% formic acid (FA). The samples were desalted using 100 μL pipette tips packed with C18 discs (3M, Saint Paul, MN, USA). Prior to sample loading, the tips were conditioned sequentially with 80 μL of acetonitrile (ACN), followed by 80 μL of a 1:1 (v/v) mixture of H2O and ACN, and finally with 80 μL of H2O. The conditioned tips were loaded with peptides. Then, they were washed twice with 80 μL of H2O. After that, the peptides were eluted twice using 80 μL of a solution composed of 50% water and 50% acetonitrile (ACN). The resulting eluates were vacuum-dried and then reconstituted in 0.1% formic acid for the subsequent LC-MS/MS analysis.
(§4) The peptide mixtures were analyzed using an EASY-nLC 1200 liquid chromatography system (Thermo Fisher Scientific, WLM, MA, USA) equipped with a custom-made 15 cm C18 column (150 μm ID, 1.9 μm particle size, 100 Å pore size). Peptide separation was performed over a 75-min gradient at a constant flow rate of 600 nL/min. The gradient profile was as follows: 4%–7% buffer B (1 min), 7%–13% buffer B (6 min), 13%–25% buffer B (38 min), 25%–45% buffer B (22 min), 45%–95% buffer B (1 min), followed 95% buffer B (7-min). The buffers used were Buffer A (0.1% formic acid) and Buffer B (0.1% formic acid in 80% acetonitrile). The peptide mixtures were then analyzed using a Q Exactive HF mass spectrometer (Thermo Fisher Scientific). MS data were acquired in data-dependent acquisition (DDA) mode with a dynamic exclusion duration of 15 s. MS1 scans were acquired in positive-ion mode across a mass-to-charge (m/z) range of 300–1400, with a resolution of 120,000 (at m/z 200) and a maximum injection time of 50 ms. Precursor ions were fragmented using higher-energy collision dissociation (HCD) at 27% normalized collision energy. MS2 spectra were collected with an AGC target of 5.0 × 10^4 and a maximum injection time of 20 ms.
(§5) Label-free MS raw data were processed using MaxQuant (v2.4) against the UniProt Human database (https://www.uniprot.org/, downloaded May 2024; 20,434 entries). A strict false discovery rate (FDR) threshold of ≤0.01 was applied at the spectra, protein, and modification levels. Contaminants and reverse database hits were excluded. Default settings were used for all other parameters. Protein groups output by MaxQuant were further analyzed in R (v4.2.1). Student’s t-test, and p-values < 0.01 were considered statistically significant for statistical analyses and a volcano plot was generated with GraphPad Prism 8.0.

[7] = target: T5, PLZF (Homo sapiens, UniProt Q05516); experiment: MS-based quantitative proteomics in NCI-H929 cells; conditions: NCI-H929, 10 µM
T5 construct: endogenous in cells; host or cells: NCI-H929
T5 sequence (Q96SW2 whole entry partner): as the sequence (Q96SW2 whole entry partner) above
T5 sequence (Q16531 whole entry partner): as the sequence (Q16531 whole entry partner) above
T5 sequence (Q05516 whole entry): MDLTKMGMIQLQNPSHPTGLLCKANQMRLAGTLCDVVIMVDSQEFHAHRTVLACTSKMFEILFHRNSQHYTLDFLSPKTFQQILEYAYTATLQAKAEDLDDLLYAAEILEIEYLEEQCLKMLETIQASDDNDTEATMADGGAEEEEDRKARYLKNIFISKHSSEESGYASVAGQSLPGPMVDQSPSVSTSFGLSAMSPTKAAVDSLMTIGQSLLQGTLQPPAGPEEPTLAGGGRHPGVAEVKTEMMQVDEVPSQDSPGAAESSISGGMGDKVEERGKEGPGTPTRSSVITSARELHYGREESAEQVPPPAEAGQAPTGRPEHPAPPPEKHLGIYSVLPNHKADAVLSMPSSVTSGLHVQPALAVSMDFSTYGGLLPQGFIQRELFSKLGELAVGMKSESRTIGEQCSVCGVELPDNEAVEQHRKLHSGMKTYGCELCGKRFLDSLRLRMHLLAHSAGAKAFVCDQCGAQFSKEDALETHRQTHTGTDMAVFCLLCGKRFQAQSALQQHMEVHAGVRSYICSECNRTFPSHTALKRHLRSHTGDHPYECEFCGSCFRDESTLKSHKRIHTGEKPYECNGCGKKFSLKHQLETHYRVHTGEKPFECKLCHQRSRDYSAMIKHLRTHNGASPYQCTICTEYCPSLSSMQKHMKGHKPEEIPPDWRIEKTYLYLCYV
Description: as §3, §4, §5

[8] = target: T6, IKZF3 (Homo sapiens, UniProt Q96SW2+Q9UKT9); experiment: MS-based quantitative proteomics in NCI-H929 cells; conditions: NCI-H929, 10 μM, 4 h
T6 construct: endogenous in cells; host or cells: NCI-H929
Description: as §3, §4, §5

[9] = target: T7, IKZF5 (Homo sapiens, UniProt Q9H5V7); experiment: MS-based quantitative proteomics in NCI-H929 cells; conditions: NCI-H929, 10 μM, 4 h; not notably downregulated
T7 construct: endogenous in cells; host or cells: NCI-H929
T7 sequence (Q96SW2 whole entry partner): as the sequence (Q96SW2 whole entry partner) above
T7 sequence (Q16531 whole entry partner): as the sequence (Q16531 whole entry partner) above
T7 sequence (Q9H5V7 whole entry): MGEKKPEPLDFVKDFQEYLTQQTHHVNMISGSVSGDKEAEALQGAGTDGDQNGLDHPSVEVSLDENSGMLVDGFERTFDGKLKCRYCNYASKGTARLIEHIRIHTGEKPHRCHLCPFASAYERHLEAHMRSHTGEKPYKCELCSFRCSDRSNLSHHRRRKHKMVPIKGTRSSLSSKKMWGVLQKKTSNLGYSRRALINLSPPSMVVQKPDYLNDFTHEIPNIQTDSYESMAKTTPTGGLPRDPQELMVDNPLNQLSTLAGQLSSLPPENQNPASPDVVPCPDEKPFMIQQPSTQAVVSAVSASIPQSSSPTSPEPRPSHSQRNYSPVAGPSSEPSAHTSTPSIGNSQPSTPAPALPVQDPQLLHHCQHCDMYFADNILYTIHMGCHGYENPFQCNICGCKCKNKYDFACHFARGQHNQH
Description: as §3, §4, §5

[10] = target: T8, IKZF1 (Homo sapiens, UniProt Q13422+Q96SW2); experiment: MS-based quantitative proteomics in NCI-H929 cells; conditions: NCI-H929, 10 μM, 4 h
T8 construct: endogenous in cells; host or cells: NCI-H929
T8 sequence (Q13422 whole entry): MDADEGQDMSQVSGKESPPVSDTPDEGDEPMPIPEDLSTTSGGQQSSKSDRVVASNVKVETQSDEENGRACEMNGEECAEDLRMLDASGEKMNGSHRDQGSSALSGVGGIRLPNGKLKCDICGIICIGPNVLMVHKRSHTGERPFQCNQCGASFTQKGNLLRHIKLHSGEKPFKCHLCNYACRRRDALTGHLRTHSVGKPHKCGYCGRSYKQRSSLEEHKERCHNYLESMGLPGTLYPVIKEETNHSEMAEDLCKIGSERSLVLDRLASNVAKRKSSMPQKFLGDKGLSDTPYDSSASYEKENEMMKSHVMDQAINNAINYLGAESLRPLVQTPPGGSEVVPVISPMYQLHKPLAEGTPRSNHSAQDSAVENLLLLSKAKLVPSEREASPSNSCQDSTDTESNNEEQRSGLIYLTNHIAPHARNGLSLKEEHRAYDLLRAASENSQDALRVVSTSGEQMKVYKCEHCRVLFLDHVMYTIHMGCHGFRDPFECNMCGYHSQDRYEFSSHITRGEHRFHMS
T8 sequence (Q96SW2 whole entry): as the sequence (Q96SW2 whole entry partner) above
T8 sequence (Q16531 whole entry partner): as the sequence (Q16531 whole entry partner) above
Description: as §3, §4, §5

[11] = target: T9, CK1α (Homo sapiens, UniProt P48729); experiment: MS-based quantitative proteomics in NCI-H929 cells; conditions: NCI-H929, 10 μM, 4 h; not notably downregulated
T9 construct: endogenous in cells; host or cells: NCI-H929
Description: as §3, §4, §5

degradation effect on luminescence signals of CK1α-HiBit [3]	degradation effect on luminescence signals of GSPT1-HiBit [4]	effect on luminescence signals from IKZF2-HiBit [5]	absolute [log2(fold change)] of GSPT1 [6]	PLZF level (proteomics) [7]	reduction of IKZF3 (proteomics) [8] [%]	absolute [log2(fold change)] of IKZF5 [9]	reduction of IKZF1 (proteomics) [10]	absolute [log2(fold change)] of CK1α [11]	SMILES	apoptosis (in words) [1]	apoptosis rate ([2]; MV-4-11, 1 µM) [%]	apoptosis rate ([2]; MV-4-11, 10 µM) [%]
minimal degradation effects	minimal degradation effects	minimal inhibition	–	–	–	–	–	–	CN1CCN(Cc2cccc(C(=O)NC3CCC(=O)NC3=O)c2)CC1 (stereo not drawn) [MGD-A7, N-(2,6-dioxopiperidin-3-yl)-3-((4-methylpiperazin-1-yl)methyl)benzamide]	significantly induced apoptosis	22.5	36.6
minimal degradation effects	minimal degradation effects	minimal inhibition	less than 1	remained unaffected	~80.2	less than 1	approximately 75.1%	less than 1	CN1CCN(Cc2cccc(C(=O)NC3CCC(=O)NC3=O)c2F)C(=O)C1 (stereo not drawn) [MGD-C9, N-(2,6-dioxopiperidin-3-yl)-2-fluoro-3-((4-methyl-2-oxopiperazin-1-yl)methyl)benzamide]	significantly induced apoptosis	26.0	40.7
